Test results as given in patent US11304431B2, “Sweetener and flavor compositions, methods of making and methods of use thereof” (EPC Natural Products Co., Ltd., priority 2018, dated 2022).
Residues, ends and D or L forms follow the SMILES beside them.

Assays:
[1] = sweetness depends on the tested concentration compared with sucrose; cited from earlier work
[2] = HPLC/DAD/MS of Maillard reaction intermediates (MRI, Amadori products), unreacted partners and degradation kinetics at various pH; conditions: 120 °C; for % formation from degraded Phe: n.d. = not detected
Experimental: For HPLC analysis the reacted samples were injected after filtration (2 μm syringe filters).
Mobile Phase A consisted of a 0.1% formic acid in water. Mobile Phase B consisted of 0.1% formic acid in acetonitrile. […] Injection volume was set to 20 μl.
The mobile phase consisted of (A) 0.1% HCOOH (v/v) and (B) AcCN. A gradient of 5% (B) to 15% (B) was applied between 0 min to 15 min. Between 15 and 20 min (B) was increased to 45% which was kept for 5 min. Detection consisted of UV/VIS-DAD (205 nm, 254 nm, 450 nm) coupled to ESI-MS (pos mode, 300° C., TIC from m/z 120-1200, fragmentor 100).
Quantitative evaluation was performed using external standardization.

[3] = DPPH radical-scavenging activity (Example 65); conditions: Reb-A 10 mM with or without amino acid, 100° C., 0-5 hours, diluted 1:10; FIG. 49 and 50
Experimental: 1 mg 1,1-Diphenyl-2-picrylhydrazyl radical (DPPH)/ml ethanol, dilution to assay concentration were prepared in ethanol (40 μg/mL); Calibration samples were prepared with Ascorbic acid in a concentration of 0-10 μg/mL; as a negative control sample, water was used.
Samples in aqueous solution were used as such or diluted with water.
A 0.1 ml sample (or calibration standard) was mixed with 3.9 ml solution of DPPH (100 μMolar) and reacted while protected from light at room temperature for 30 min. Absorbance was determined at 517 nm against ethanol.
10 mM of amino acid and/or 10 mM sugar were dissolved in 10 ml 0.1 mM KH2PO4-buffer, pH=7.8.
The samples were kept at 100° C. in sealed glass vials (Pyrex 15 ml with screw caps) for 0 (before reaction), 2.5 or 5.0 hours. Thereafter the samples were transferred to an ice water bath and cooled down to room temperature. These samples were diluted 1:10 and used for the test assay for anti-oxidant potential.

[4] = reaction of Phe and Suc, pH = 5.5, 1.0 h

SMILES | times sweeter than sucrose (sugar, cane sugar) [1] | other results
COC(=O)[C@H](Cc1ccccc1)NC(=O)[C@@H](N)CC(=O)O [Aspartame] (H-Asp-Phe-OMe) | 160-200 times | –
O=C(O)[C@H](Cc1ccccc1)NCC(=O)[C@@H](O)[C@H](O)[C@H](O)CO [MRI (Phe-Glu)] | – | % formation from degraded Phe [2, 4]: <0.10%; % formation from degraded Phe ([2]; reaction of Phe and Suc, pH = 7.0, 1.0 h): 0.54%; % formation from degraded Phe ([2]; reaction of Phe and Suc, pH = 8.5, 1.0 h): 0.84%
OC[C@@H](O)[C@@H](O)[C@H](O)[C@H](O)CO [Mannitol] | 0.55-0.65 times | –
N[C@H](Cc1ccccc1)C(=O)O [Phe] | – | % degradation [2, 4]: 5.50%; % degradation ([2]; reaction of Phe and Xyl, pH = 7.0, 1.0 h): 4.80%
C=C1C[C@@]23CC[C@H]4[C@@](C)(CCC[C@@]4(C)C(=O)O[C@@H]4O[C@H](CO)[C@@H](O)[C@H](O)[C@H]4O)[C@@H]2CC[C@]1(O[C@@H]1O[C@H](CO)[C@@H](O)[C@H](O[C@@H]2O[C@H](CO)[C@@H](O)[C@H](O)[C@H]2O)[C@H]1O[C@@H]1O[C@H](CO)[C@@H](O)[C@H](O)[C@H]1O)C3 [Reb-A, Rebaudioside A] | – | anti-oxidant properties [3]: substantial anti-oxidant properties
C=C1C[C@@]23CC[C@H]4[C@@](C)(CCC[C@@]4(C)C(=O)O[C@@H]4O[C@H](CO)[C@@H](O)[C@H](O)[C@H]4O)[C@@H]2CC[C@]1(O[C@@H]1O[C@H](CO)[C@@H](O)[C@H](O)[C@H]1O)C3 [Rubusoside] | 200 times | –
C[C@H](CC[C@@H](O[C@@H]1O[C@H](CO)[C@@H](O)[C@H](O)[C@H]1O[C@@H]1O[C@H](CO)[C@@H](O)[C@H](O)[C@H]1O)C(C)(C)O)[C@H]1CC[C@@]2(C)[C@H]3CC=C4[C@@H](CC[C@H](O[C@@H]5O[C@H](CO[C@@H]6O[C@H](CO)[C@@H](O)[C@H](O)[C@H]6O)[C@@H](O)[C@H](O)[C@H]5O)C4(C)C)[C@]3(C)[C@H](O)C[C@]12C [mogroside IV] | 126 times | –
C[C@H](CC[C@@H](O[C@@H]1O[C@H](CO[C@@H]2O[C@H](CO)[C@@H](O)[C@H](O)[C@H]2O)[C@@H](O)[C@H](O)[C@H]1O[C@@H]1O[C@H](CO)[C@@H](O)[C@H](O)[C@H]1O)C(C)(C)O)[C@H]1CC[C@@]2(C)[C@@H]3CC=C4[C@@H](CC[C@H](O[C@@H]5O[C@H](CO[C@@H]6O[C@H](CO)[C@@H](O)[C@H](O)[C@H]6O)[C@@H](O)[C@H](O)[C@H]5O)C4(C)C)[C@]3(C)[C@H](O)C[C@]12C [mogroside V] | 256-344 times | –
O=S(=O)([O-])NC1CCCCC1.[Na+] [sodium cyclamate] | about 30 times | –
OC[C@H]1O[C@H](O[C@]2(CCl)O[C@H](CCl)[C@@H](O)[C@@H]2O)[C@H](O)[C@@H](O)[C@H]1Cl [sucralose] | about 600 times | –
